Where two headings read alike, the source gives them in different places.
How the values were obtained:
CYP3A4 [1] = assay: clinical; conditions: human, in vivo, po; for AUC(0-inf): AUCinf; for AUC(0-inf) / AUC(0-t) / Cmax: N=12; for AUC(0-t): AUClast
CYP3A4 [2] = test system: CYP3A4
[3] = 2 mg, GLSM, midazolam 2 mg single oral dose without RBN-3143 (day 1)
[4] = 2 mg, geometric mean (Geo CV%), midazolam 2 mg single oral dose without RBN-3143 (day 1)
[5] = 2 mg, mean (SD), midazolam 2 mg single oral dose without RBN-3143 (day 1)
[6] = GLSM, midazolam 2 mg single oral dose with RBN-3143 300 mg BID at steady state (day 16)
[7] = geometric mean (Geo CV%), midazolam 2 mg single oral dose with RBN-3143 300 mg BID at steady state (day 16)
[8] = mean (SD), midazolam 2 mg single oral dose with RBN-3143 300 mg BID at steady state (day 16)
[9] = midazolam with RBN-3143 / without RBN-3143 (300 mg BID for 14 days)
[10] = midazolam with RBN-3143 / without RBN-3143 (300 mg BID for 14 days), listed as midazolam

Cc1ncc2n1-c1ccc(Cl)cc1C(c1ccccc1F)=NC2 [Midazolam, midazolam]
AUC(0-inf) (CYP3A4 [1]; [3]): 20.8 ng·h/mL
AUC(0-inf) (CYP3A4 [1]; [4]): 20.8 ng·h/mL
AUC(0-inf) (CYP3A4 [1]; [5]): 22.2 ng·h/mL
AUC(0-t) (CYP3A4 [1]; [3]): 19.8 ng·h/mL
AUC(0-t) (CYP3A4 [1]; [4]): 19.8 ng·h/mL
AUC(0-t) (CYP3A4 [1]; [5]): 21.2 ng·h/mL
Cmax (CYP3A4 [1]; [3]): 9.88 ng/mL
Cmax (CYP3A4 [1]; [4]): 9.87 ng/mL
Cmax (CYP3A4 [1]; [5]): 10.3 ng/mL
half-life (CYP3A4 [1]; 2 mg, t1/2, geometric mean (Geo CV%), midazolam 2 mg single oral dose without RBN-3143 (day 1)): 3.05 h
half-life (CYP3A4 [1]; 2 mg, t1/2, mean (SD), midazolam 2 mg single oral dose without RBN-3143 (day 1)): 3.29 h
AUC(0-inf) (CYP3A4 [1]; [6]): 18.3 ng·h/mL
AUC(0-inf) (CYP3A4 [1]; [7]): 18.3 ng·h/mL
AUC(0-inf) (CYP3A4 [1]; [8]): 19.9 ng·h/mL
AUC(0-t) (CYP3A4 [1]; [6]): 17.2 ng·h/mL
AUC(0-t) (CYP3A4 [1]; [7]): 17.2 ng·h/mL
AUC(0-t) (CYP3A4 [1]; [8]): 18.6 ng·h/mL
Cmax (CYP3A4 [1]; [6]): 9.11 ng/mL
Cmax (CYP3A4 [1]; [7]): 9.11 ng/mL
Cmax (CYP3A4 [1]; [8]): 9.76 ng/mL
half-life (CYP3A4 [1]; t1/2, geometric mean (Geo CV%), midazolam 2 mg single oral dose with RBN-3143 300 mg BID at steady state (day 16)): 3.09 h
half-life (CYP3A4 [1]; t1/2, mean (SD), midazolam 2 mg single oral dose with RBN-3143 300 mg BID at steady state (day 16)): 3.49 h
subjects with decreased exposure to oral midazolam (CYP3A4 [2]; after RBN-3143 300 mg BID to steady-state): 9/12
increase of midazolam Cmax in 1 subject against the trend (CYP3A4 [2]; in the presence of RBN-3143): 3 fold
subjects showing increased midazolam AUCinf (CYP3A4 [2]; in the presence of RBN-3143): 3 subjects out of 12
subjects showing increased midazolam Cmax (CYP3A4 [2]; in the presence of RBN-3143): 2 subjects out of 12
AUCinf GLSM ratio (90% CI) (CYP3A4 [2]; [9]): … … 0.88 (0.76, 1.01)
AUClast GLSM ratio (90% CI) (CYP3A4 [2]; [9]): … … 0.87 (0.75, 1.01)
Cmax GLSM ratio (90% CI) (CYP3A4 [2]; [9]): … … 0.92 (0.74, 1.16)
AUCinf GLSM ratio (90% CI) (CYP3A4 [2]; [10]): 0.88
Cmax GLSM ratio (90% CI) (CYP3A4 [2]; [10]): 0.92

From article PMC12209991 (Clinical Pharmacology in Drug Development, 2025)
